This is an account of results in US6469008B2, “(R)-hydroxynefazodone antipsychotic therapy” (Sepracor Inc., priority 1999, dated 2002).

One data set concerns the target T1, D1 (Homo sapiens, UniProt P21728).
T1 construct: host or cells: membrane preparations
In words: Dopamine D1 receptor binding. The protocol: (§1) Dopamine and serotonin receptor binding assays were performed in a standard manner with the incubation of membrane preparations in an assay buffer in the presence of a known radioactively labeled specific ligand for the receptor subtypes. Nonspecific binding was determined by assessing binding in the presence of excess ligand. Specific binding was measured as the total labeled ligand bound after the nonspecific binding was subtracted. The effect of the tested agents was measured by determining the competition for the receptor binding across a concentration range. Subsequently, an IC50 was determined for the agents tested. More specific details are provided below for several of the assays performed.

The target in another data set is T2, D3 (Homo sapiens, UniProt P35462).
T2 construct: host or cells: membrane preparations
T2 sequence (P35462 whole entry): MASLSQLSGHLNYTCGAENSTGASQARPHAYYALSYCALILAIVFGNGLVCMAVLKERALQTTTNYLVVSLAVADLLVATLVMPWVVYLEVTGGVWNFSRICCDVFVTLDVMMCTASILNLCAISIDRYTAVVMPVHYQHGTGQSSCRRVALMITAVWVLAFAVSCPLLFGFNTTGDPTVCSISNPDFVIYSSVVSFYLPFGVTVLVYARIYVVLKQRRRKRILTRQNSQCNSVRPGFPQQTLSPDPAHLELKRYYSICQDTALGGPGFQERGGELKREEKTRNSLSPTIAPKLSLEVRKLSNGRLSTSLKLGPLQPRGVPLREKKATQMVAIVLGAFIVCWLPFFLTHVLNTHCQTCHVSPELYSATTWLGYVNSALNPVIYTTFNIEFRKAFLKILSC
The data set can be described thus: Dopamine D3 receptor binding. The protocol: as §1

The conditions of data set [1]: AUC and Cmax increasing more than proportionally with dose and upon multiple dosing; cited from earlier work.
In another data set the target is T3, 5-HT1A receptors (Homo sapiens, UniProt P08908).
T3 sequence (P08908 1-422): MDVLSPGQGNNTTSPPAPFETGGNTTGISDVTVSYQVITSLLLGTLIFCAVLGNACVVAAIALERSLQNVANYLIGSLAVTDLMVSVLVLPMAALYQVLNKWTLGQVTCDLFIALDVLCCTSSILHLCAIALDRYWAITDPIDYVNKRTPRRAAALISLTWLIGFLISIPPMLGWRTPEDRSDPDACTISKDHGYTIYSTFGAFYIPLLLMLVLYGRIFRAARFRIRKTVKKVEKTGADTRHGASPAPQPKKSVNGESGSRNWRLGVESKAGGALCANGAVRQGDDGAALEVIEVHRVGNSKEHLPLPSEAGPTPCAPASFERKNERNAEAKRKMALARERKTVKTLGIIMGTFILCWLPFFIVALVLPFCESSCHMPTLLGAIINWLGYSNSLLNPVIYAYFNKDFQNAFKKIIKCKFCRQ
In words: 5-HT1A receptor binding. Details: expressed in transfected cells; host or cells: CHO cells. As to conditions: [3H]8-OH-DPAT, transfected CHO cell membranes; read-out: Serotonin Receptor Binding 5-HT1A (IC50). The protocol: as §1
Aliquots of transfected CHO cell membrane preparations corresponding to 7-15 μg protein are incubated for 60 min at 22° C. in 250 μl of 50 mM Tris-HCl buffer (pH 7.4) containing 10 mM MgSO4, 0.5 mM EDTA, 0.3 nM [^3H]8-OH-DPAT and increasing concentrations of the competing drugs. Nonspecific binding is determined in the presence of 10 μM 8-OH-DPAT. After incubation, the samples are filtered rapidly under vacuum through glass fiber filters (GF/B, Packard) and rinsed several times with ice-cold 50 mM Tris-HCl using a cell harvester (Packard). Bound radioactivity is measured with a scintillation counter (Topcount, Packard) using a liquid scintillation cocktail (Microscint 0, Packard). The reference compound for this assay is 8-OH-DPAT.

The target in the next data set is T4, Human 5-HT2C receptor (Homo sapiens, UniProt P28335).
T4 construct: expressed in transfected cells; host or cells: CHO cells
T4 sequence (P28335 33-458): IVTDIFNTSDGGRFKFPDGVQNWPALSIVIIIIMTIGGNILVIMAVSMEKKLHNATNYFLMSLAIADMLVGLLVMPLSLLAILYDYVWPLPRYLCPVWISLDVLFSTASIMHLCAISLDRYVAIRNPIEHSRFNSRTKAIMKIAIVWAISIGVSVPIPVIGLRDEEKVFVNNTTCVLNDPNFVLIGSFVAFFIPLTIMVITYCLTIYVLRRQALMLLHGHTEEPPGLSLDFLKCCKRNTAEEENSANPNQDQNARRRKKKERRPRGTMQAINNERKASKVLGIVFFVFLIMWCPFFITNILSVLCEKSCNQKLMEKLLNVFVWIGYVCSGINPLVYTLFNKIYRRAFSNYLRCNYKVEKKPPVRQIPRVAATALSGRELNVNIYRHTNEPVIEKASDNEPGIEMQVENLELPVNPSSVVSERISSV
The data set can be described thus: 5-HT2C receptor binding. The conditions noted are these: [3H]mesulergine, transfected CHO cell membranes; read-out: Serotonin Receptor Binding 5HT2C (IC50). As for the experimental part:
as §1
Aliquots of transfected CHO cell membrane preparations corresponding to 5-10 μg protein are incubated for 30 min at 37° C. in 250 μl of 50 mM Tris-HCl buffer (pH 7.7) containing 10 μM pargyline, 0.7 nM [^3H]mesulergine and increasing concentrations of the competing drugs. Nonspecific binding is determined in the presence of 1 μM mesulergine. After incubation, the samples are filtered rapidly under vacuum through glass fiber filters (GF/B, Packard) and rinsed several times with ice-cold 50 mM Tris-HCl using a cell harvester (Packard). Bound radioactivity is measured with a scintillation counter (Topcount, Packard) using a liquid scintillation cocktail (Microscint 0, Packard). The reference compound for this assay is mesulergine.

The target in data set [2] is T5, norepinephrine uptake by rat hypothalamus synaptosomes (Rattus norvegicus, UniProt Q63380).
T5 construct: tissue Cerep; host or cells: male Wistar rat hypothalamus synaptosomes
T5 sequence (Q63380 1-617): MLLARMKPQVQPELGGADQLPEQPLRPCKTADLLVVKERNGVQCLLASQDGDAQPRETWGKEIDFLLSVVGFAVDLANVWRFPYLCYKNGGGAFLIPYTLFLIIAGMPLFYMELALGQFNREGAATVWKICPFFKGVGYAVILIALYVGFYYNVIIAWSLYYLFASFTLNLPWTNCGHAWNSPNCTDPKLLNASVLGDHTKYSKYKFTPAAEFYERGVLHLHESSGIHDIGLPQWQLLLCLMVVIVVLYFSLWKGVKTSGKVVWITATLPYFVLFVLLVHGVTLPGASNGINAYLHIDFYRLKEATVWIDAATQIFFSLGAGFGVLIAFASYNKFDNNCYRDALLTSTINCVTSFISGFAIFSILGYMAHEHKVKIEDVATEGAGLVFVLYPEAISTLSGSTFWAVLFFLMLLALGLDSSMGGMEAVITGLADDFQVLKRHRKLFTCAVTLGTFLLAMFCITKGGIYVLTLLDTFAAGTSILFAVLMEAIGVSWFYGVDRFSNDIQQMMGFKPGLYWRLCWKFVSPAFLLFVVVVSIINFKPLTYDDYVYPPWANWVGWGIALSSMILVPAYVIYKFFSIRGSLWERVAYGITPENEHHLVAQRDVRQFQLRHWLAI
In words: Norepinephrine uptake functional assay. It counts as biochemical. As to conditions: [3H]-norepinephrine, read-out: Monoamine Neuronal Transport NE uptake (IC50). The protocol:
Norepinephrine uptake functional assay
Characterization of norepinephrine uptake is performed using synaptosomes isolated at Cerep in a 0.32 M sucrose buffer from a male Wistar rat hypothalamus. The uptake of radiolabeled norepinephrine by synaptosomes (100 μg of proteins/point) is allowed by incubating them for 20 minutes at 37° C. in presence of test compounds and [3H]-norepinephrine (0.1 μCi/point). The experiment is performed in a deep well.
Synaptosomes and [3H]-norepinephrine are prepared in a Krebs buffer pH 7.4 containing 25 mM NaHCO3, 11 mM glucose and 50 μM ascorbic acid. This incubation buffer is oxygenated during 5 minutes before incubation. Basal control is incubated for 20 minutes at 4° C. in order to avoid any uptake. Following this incubation the uptake is stopped by filtration through an “unifilter 96-wells GFB” Packard plate washed with Krebs buffer containing 25 mM NaHCO3 in order to eliminate the free [3H]-norepinephrine. The radioactivity associated to the synaptosomes retained onto the unifilter corresponding to the uptake is then measured with a microplate scintillation counter Topcount, Packard using a scintillation liquid microscint 0, Packard.
[See Perovics and Müiller, op.cit. (1995).]

Data set [3] relates to 5-HT2 receptors versus dopamine receptors. In words: Selectivity from dopamine and serotonin receptor binding data. As to conditions: compared with nefazodone or S-hydroxynefazodone. The protocol: as §1

The structures appear in SMILES notation.

T1 sequence (P21728 whole entry): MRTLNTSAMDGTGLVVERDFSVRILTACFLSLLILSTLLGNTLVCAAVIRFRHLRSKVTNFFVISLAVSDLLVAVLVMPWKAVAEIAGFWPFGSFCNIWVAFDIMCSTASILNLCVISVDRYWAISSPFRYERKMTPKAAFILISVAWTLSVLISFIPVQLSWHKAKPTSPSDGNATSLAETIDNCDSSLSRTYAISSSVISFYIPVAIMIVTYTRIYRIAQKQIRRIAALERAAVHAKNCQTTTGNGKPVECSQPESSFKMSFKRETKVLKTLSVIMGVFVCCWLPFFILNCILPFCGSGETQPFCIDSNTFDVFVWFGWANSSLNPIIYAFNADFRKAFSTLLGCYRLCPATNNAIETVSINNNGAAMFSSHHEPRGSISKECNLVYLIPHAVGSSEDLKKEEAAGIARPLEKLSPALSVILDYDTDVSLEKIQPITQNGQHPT

The IC50 is the concentration that gives 50% inhibition. For `CC(O)c1nn(CCCN2CCN(c3cccc(Cl)c3)CC2)c(=O)n1CCOc1ccccc1` (racemic) [(RS)-OH, 2-[3-[4-(3-chlorophenyl)1-piperazinyl]propyl]-5-(1-hydroxyethyl)-2,4-dihydro-4-(phenoxyethyl)-3H-1,2,4-triazol-3-one, reference compound], the IC50 on D1 came out at 2270 nM; on D3, 2560 nM; at 5-HT1A receptors, 409 nM; on Human 5-HT2C receptor, 46 nM; in data set [2], 1000 nM. For the same compound, the “kinetics for dose and time (AUC and Cmax)” value in data set [1] is “nonlinear kinetics”.
With `C[C@@H](O)c1nn(CCCN2CCN(c3cccc(Cl)c3)CC2)c(=O)n1CCOc1ccccc1` [(R)-OH, (R)-hydroxynefazodone], the IC50 amounted to 1690 nM at D1; 3490 nM on D3; 496 nM at 5-HT1A receptors; 33 nM on Human 5-HT2C receptor; 1200 nM in data set [2]. Further, the “selectivity for 5-HT family of receptors, in particular 5-HT2, versus dopamine receptors (D2 and D4)” value in data set [3] is recorded as “interacts more selectively”.
With `C[C@H](O)c1nn(CCCN2CCN(c3cccc(Cl)c3)CC2)c(=O)n1CCOc1ccccc1` [(S)-OH, (S)-2-{3-[4-(3-Chlorophenyl)-1-piperazinyl]propyl}-4-(2-phenoxyethyl)-5-[1-(hydroxy)-ethyl]-2,4-dihydro-[1,2,4]triazol-3-one], the IC50 on D1 was 2310 nM; on D3, 1910 nM; on 5-HT1A receptors, 249 nM; on Human 5-HT2C receptor, 34 nM; in data set [2], 1500 nM.
